Our source for the IC50 values is patent publication US20260184726A1, “HETEROCYCLIC COMPOUNDS AS KINASE INHIBITORS, COMPOSITIONS, AND METHODS OF USE THEREOF” (JS INNOMED HOLDINGS LTD., priority 2022, published 2026).

The subject of one experiment is BAF3 cells. As to the kind of experiment: BAF3 Cell Proliferation Assay (CellTiter-Glo, without RET driven, IL-3). It counts as cell-based. To be noted: Mus musculus; growth inhibition in BAF3 cells, 72 hours, with IL-3; read-out: BAF3 Cellular Activity. An outline of the steps:
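BAF3 cells in RPMI-1640 with 10% FBS and 1 ng/ml IL-3, seeded 2,000/well and settled 24 h at 37 °C, then exposed to compound at final 10 μM down to 0.0015 μM (0.1% DMSO) for 72 h. Viability by CellTiter-Glo luminescence versus DMSO controls; IC50 from curve fit.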

The next experiment has as its target T1, human RET kinase (Homo sapiens, UniProt P07949).
T1 construct: purchased Carna 08-159
Briefly: RET Kinase Assay (mobility shift assay, ATP at Km). In kind it is biochemical. Particulars: 23 μM ATP (Km), read-out: RET Enzymatic Activity. An outline of the steps: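 Human RET (7 nM) pre-incubated with compound 15 min at room temperature in 50 mM HEPES pH 7.5, 0.0015% Brij-35; reaction with 3 μM FAM-P2 peptide and 23 μM ATP (Km) 1 h at 28° C, EDTA-stopped. Mobility shift read; IC50 from sigmoid fit of percent of 2% DMSO control.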

The target of another experiment is T2, human KDR kinase (Homo sapiens, UniProt P35968).
T2 construct: purchased Carna 08-191
T2 sequence (P35968 20-1356): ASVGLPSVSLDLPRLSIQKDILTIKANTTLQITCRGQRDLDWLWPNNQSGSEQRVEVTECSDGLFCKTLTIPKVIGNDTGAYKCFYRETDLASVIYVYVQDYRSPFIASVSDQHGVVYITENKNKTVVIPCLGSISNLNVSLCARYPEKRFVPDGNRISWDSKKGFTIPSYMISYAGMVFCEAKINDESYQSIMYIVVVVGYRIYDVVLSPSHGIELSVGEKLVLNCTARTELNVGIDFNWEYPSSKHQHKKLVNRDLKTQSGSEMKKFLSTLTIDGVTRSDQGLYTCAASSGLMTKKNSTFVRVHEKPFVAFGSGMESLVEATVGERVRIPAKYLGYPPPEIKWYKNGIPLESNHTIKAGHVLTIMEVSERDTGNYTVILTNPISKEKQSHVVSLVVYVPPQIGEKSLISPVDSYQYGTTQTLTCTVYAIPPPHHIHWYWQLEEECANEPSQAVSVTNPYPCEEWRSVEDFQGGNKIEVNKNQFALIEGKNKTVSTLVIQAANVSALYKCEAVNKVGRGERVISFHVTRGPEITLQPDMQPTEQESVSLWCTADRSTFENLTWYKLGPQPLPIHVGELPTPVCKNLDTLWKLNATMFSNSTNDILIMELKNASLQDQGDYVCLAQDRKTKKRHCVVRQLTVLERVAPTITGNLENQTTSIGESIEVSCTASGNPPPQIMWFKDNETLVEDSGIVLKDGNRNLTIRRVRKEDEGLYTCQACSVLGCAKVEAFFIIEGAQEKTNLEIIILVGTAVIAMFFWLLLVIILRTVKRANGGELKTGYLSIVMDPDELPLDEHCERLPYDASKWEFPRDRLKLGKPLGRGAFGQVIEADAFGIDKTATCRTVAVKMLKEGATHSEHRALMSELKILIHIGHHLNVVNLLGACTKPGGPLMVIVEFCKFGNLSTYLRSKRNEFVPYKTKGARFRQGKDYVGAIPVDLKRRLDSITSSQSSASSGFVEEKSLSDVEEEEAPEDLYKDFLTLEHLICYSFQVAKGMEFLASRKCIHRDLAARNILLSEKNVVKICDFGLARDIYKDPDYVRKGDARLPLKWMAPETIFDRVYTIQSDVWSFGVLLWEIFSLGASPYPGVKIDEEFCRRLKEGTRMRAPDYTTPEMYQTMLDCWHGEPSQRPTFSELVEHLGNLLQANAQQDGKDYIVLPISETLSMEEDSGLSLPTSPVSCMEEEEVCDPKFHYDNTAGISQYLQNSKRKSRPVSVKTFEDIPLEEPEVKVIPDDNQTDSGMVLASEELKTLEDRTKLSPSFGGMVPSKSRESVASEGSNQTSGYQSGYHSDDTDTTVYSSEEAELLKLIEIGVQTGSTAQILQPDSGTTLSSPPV
As to the kind of experiment: KDR Kinase Assay (mobility shift assay, ATP at Km). It counts as biochemical. To be noted: 92 μM ATP (Km), read-out: KDR Enzymatic Activity. The procedure:
Compounds were tested by Mobility shift assay with ATP concentration at Km. The assay used human KDR kinase (Carna 08-191). Test compounds were prepared and diluted in DMSO in 3-fold serial dilutions to 50× of the final testing concentrations. The compounds were then further diluted to 5× by the kinase reaction buffer (50 mM HEPES pH 7.5, 0.0015% Brij-35). The enzymatic reaction for compound testing was performed in a white 384-well polypropylene plate (Corning 3573) with a total reaction volume of 25 μl containing 1.2 nM KDR, 3 μM peptide substrate FAM-P22 (GL Biochem 112393), and 92 μM ATP (Sigma A7699-1G). The assay started with loading RET diluted in kinase reaction buffer to wells, followed by addition of equal volume of 5× compounds for 15-min incubation at the room temperature for pre-treatment. The enzymatic reaction was initiated by addition of mixture of the substrate and ATP prepared in kinase reaction buffer. After incubation at 28° C. for one hour, 25 μl of stopper buffer (a mixture of 100 mM HEPES pH 7.5 buffer, 0.015% Brij-35, 50 mM EDTA and 0.2% of coating reagent 3 (Cliper Lifesciences)). After 30 minutes of incubation at room temperature, the plate was read in a Caliper. Percent of control was calculated as the percentage of compound-treated vs 2% DMSO vehicle-treated. The dose-response curves were generated and the IC50s were calculated by nonlinear sigmoid curve fitting using XLFit.

T1 sequence (P07949 29-1114): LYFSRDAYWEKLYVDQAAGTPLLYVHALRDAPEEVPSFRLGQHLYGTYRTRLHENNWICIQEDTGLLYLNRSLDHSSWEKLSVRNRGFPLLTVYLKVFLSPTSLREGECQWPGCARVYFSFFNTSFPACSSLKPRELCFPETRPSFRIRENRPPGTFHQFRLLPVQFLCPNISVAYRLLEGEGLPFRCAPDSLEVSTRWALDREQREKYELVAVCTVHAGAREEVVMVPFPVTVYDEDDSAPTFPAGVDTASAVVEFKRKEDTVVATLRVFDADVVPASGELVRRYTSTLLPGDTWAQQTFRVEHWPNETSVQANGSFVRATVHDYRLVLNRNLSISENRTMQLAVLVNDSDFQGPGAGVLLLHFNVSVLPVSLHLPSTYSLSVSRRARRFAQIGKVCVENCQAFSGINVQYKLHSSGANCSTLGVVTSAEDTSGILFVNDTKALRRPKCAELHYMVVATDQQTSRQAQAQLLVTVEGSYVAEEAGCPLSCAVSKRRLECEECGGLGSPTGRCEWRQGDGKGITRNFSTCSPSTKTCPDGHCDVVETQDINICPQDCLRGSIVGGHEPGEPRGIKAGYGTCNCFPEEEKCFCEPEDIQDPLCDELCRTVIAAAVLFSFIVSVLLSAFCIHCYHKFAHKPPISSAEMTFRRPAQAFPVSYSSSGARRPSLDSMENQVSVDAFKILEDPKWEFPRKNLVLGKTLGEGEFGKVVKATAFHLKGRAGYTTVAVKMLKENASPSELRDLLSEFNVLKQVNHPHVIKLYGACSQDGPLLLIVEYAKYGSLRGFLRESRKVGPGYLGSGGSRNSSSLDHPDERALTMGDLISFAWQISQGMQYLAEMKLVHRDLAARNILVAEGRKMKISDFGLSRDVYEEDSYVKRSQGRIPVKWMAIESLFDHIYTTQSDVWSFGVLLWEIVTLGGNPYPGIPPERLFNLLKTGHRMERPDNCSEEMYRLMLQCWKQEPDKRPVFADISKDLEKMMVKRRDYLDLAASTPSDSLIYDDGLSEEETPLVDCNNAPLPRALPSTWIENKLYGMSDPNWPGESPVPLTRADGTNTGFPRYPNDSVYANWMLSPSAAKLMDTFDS

As for `COc1ccc(CN2C3CC2CN(c2ccc(-c4cc(-c5ccc(C(C)(C)NC(C)=O)cn5)cn5ncc(C#N)c45)cn2)C3)cn1` [Example 12, N-(2-(6-(3-cyano-4-(6-(6-((6-methoxypyridin-3-yl)methyl)-3,6-diazabicyclo[3.1.1]heptan-3-yl)pyridin-3-yl)pyrazolo[1,5-a]pyridin-6-yl)pyridin-3-yl)propan-2-yl)acetamide], the IC50 with BAF3 cells amounted to 1050 nM; on human RET kinase, 0.4 nM; at human KDR kinase it was 2 nM.
